# Measured values: patent US20260375265A1, “COMPOSITION FOR ALLEVIATING SKIN PIGMENTATION” (LG H & H CO., LTD., priority 2023, published 2026)
# Where a name gives a salt, the structure may show the parent alone. Read-outs that look alike come from different tables or passages of the source.
# How the values were obtained:
# PPARGC1B [1] = experiment: qPCR of PPARGC1B mRNA expression in a-MSH-treated B16F10 cells; format: cell-based, mouse; details: B16F10, 10 nM a-MSH plus substance, one day, appropriate concentration; FIG. 3
# Method: (§1) Screening was performed for substances that influence the expression of genes associated with spot pigmentation among various substances having the skin-improving efficacy. Changes in the expression of genes associated with spot pigmentation were examined in cells where melanin synthesis was increased by a-MSH, and substances that restored the expression to the level before a-MSH treatment were selected.
# (§2) Mouse melanoma cells (B16F10; CRL-6475) were purchased from ATCC for use. The purchased cells were cultured in a 37 °C/5% CO2 incubator using a medium prepared by supplementing Dulbecco's Modified Eagle Medium (DMEM-GIBCO) with 10% fetal bovine serum (FBS) and 1% penicillin/streptomycin.
# (§3) To analyze the efficacy on changes in the mRNA expression of genes associated with skin spot pigmentation, mouse melanoma cells were seeded at […] cells/well in 6-well plates and cultured in a 37 °C/5% CO2 incubator for one day. After replacing the medium with a fresh medium, 10 nM α-MSH was treated, and substances were added to the medium at appropriate concentrations and cultured for one day under the same conditions. Thereafter, total RNA was obtained using AccuPrep Universal RNA Extraction Kit (Bioneer, K-3140), and cDNA was synthesized using AccuPower® RocketScript™ Cycle (Bioneer, K-2202). The expression level of each gene was analyzed by performing qPCR using synthesized cDNA and taqman probe (assay ID: ASCL2-Mm01268891_m1, PPARGC1B-Mm00504730_m1, TP63-Hs00978349_m1).
# TP63 = experiment: qPCR of TP63 mRNA expression in UVB-irradiated HaCaT cells; format: cell-based, human; details: UVB 10 mJ/cm^2, appropriate concentration, FIG. 3, UVB alone increased
# Method: as §1, §3
# TP63 expression was increased by 10 mJ/cm^2 of UVB in human keratinocytes, HaCaT. […]
# BNC2 = experiment: qPCR of BNC2 mRNA expression in a-MSH-treated melanocytes (B16F10); format: cell-based, mouse; details: a-MSH 10 nM plus substance, 1 day, appropriate concentration; FIG. 2
# Method: (§4) Screening was performed for substances that influence the expression of genes associated with dark skin tone among various substances having skin-improving efficacy. Changes in the expression of genes associated with dark skin tone were examined in cells where melanin synthesis was increased by a-MSH, and substances that restored the expression to the level before a-MSH treatment were selected.
# as §2
# (§5) To analyze the efficacy on changes in the mRNA expression of genes associated with dark skin tone, RT-qPCR experiment was conducted. Cells were cultured in a 37 °C/5% CO2 incubator for one day. To assess the change of KITLG expression by UVB, the medium of human keratinocytes (HaCaT) was replaced with PBS, and 30 mJ/cm^2 of UVB (312 nm) was irradiated using an RMX 3W (Vilber Lourmat) instrument. The medium was replaced with a fresh medium and cultured for one day. To assess the change in KITLG expression by treatment with substances, the cells were treated with appropriate concentrations of substances along with a fresh medium and cultured for one day. In addition, to assess the OCA2, BNC2, and RAB32 expression, melanocytes were treated with a-MSH (10 nM) and appropriate concentrations of substances in a fresh medium and cultured for 1 day. Thereafter, total RNA was obtained using AccuPrep Universal RNA Extraction Kit (Bioneer, K-3140), and cDNA was synthesized using AccuPower® RocketScript™ Cycle (Bioneer, K-2202). The expression level of each gene was analyzed by performing qPCR using synthesized cDNA and taqman probe (assay ID: OCA2-Mm00498969_m1, BNC2-Mm00556284_m1, RAB32-Mm00458960_m1, KITLG-Hs00241497_m1).
# [2] = tested on: mouse melanoma cells and human keratinocytes; experiment: Inhibition of melanin production increased by a-MSH (dark skin tone); format: cell-based; details: Keratinocyte, 48 h, a-MSH 10 nM, two days
# Method: In detail, mouse melanoma cells and human keratinocytes were seeded at […] cells/well in 6-well plates and cultured in a 37 °C/5% CO2 incubator for one day, followed by treatment with 10 nM of a-MSH. Each of media comprising appropriate concentrations and combinations of substances was added and cultured again in a 37 °C/5% CO2 incubator for two days to determine whether the substances inhibited the melanin production increased by a-MSH. Cells attached to the plates were collected in PBS and centrifuged to obtain cell pellets. The cell pellets were visually inspected and photographed. The cell pellets were dissolved in a 1 N NaOH (sodium hydroxide) solution comprising 10% dimethyl sulfoxide (DMSO) at 80 °C for 10 minutes, and placed in a 96-well plate, and absorbance at 405 nm was measured using an Epoch (Biotek) instrument. Melanin was quantified using the measured absorbance and normalized to the sample protein concentration to determine melanin concentration. The inhibition rate of melanin production of the sample was calculated as a ratio of the melanin concentration of the sample treatment group with respect to the melanin concentration increased by a-MSH treatment.
# E1=(X+Y)−(XY+XZ+YZ/100)+XYZ/10000 Colby equation
# E2=X+Y−(XY/100) Colby equation
# RAB11FIP2 = experiment: qPCR of RAB11FIP2 mRNA expression in UVB-irradiated mouse melanoma cells; format: cell-based; details: B16F10, UVB 30 mJ/cm^2 (312 nm), substance one day, appropriate concentration; FIG. 1; UVB alone decreased
# Method: (§6) Screening was performed for substances that influence the expression of genes associated with scattered dark spots on skin among various substances having skin-improving efficacy. Changes in the expression of genes associated with scattered dark spots on skin were examined in cells where melanin synthesis was increased by UVB exposure, and substances that restored the expression to the level before UVB exposure were selected.
# as §2
# (§7) To analyze the efficacy on changes in the mRNA expression of genes associated with scattered dark spots on skin, mouse melanoma cells were seeded at 2*10^5 cells/well in 6-well plates and cultured in a 37 °C/5% CO2 incubator for one day. After replacing the medium with PBS, 30 mJ/cm^2 of UVB (312 nm) was irradiated using an RMX 3W (Vilber Lourmat) instrument. Substances were added to the medium at appropriate concentrations and cultured for one day under the same conditions. […] The expression level of each gene was analyzed by performing qPCR using synthesized cDNA and taqman probe (assay ID: AKAP1-Mm00501539_m1, RAB11FIP2-Mm01261268_m1, PPARGC1B-Mm00504730_m1).
# AKAP1 = experiment: qPCR of AKAP1 mRNA expression in UVB-irradiated mouse melanoma cells; format: cell-based; details: B16F10, UVB 30 mJ/cm^2 (312 nm), substance one day, appropriate concentration; FIG. 1; UVB alone increased
# Method: as §6, §2, §7
# OCA2 = experiment: qPCR of OCA2 mRNA expression in a-MSH-treated melanocytes (B16F10); format: cell-based, mouse; details: a-MSH 10 nM plus substance, 1 day, appropriate concentration; FIG. 2
# Method: as §4, §2, §5
# RAB32 = experiment: qPCR of RAB32 mRNA expression in a-MSH-treated melanocytes (B16F10); format: cell-based, mouse; details: a-MSH 10 nM plus substance, 1 day, appropriate concentration; FIG. 2
# Method: as §4, §2, §5
# PPARGC1B [3] = experiment: qPCR of PPARGC1B mRNA expression in UVB-irradiated mouse melanoma cells; format: cell-based; details: B16F10, UVB 30 mJ/cm^2 (312 nm), substance one day, appropriate concentration; FIG. 1; UVB alone decreased
# Method: as §6, §2
# To analyze the efficacy on changes in the mRNA expression of genes associated with scattered dark spots on skin, mouse melanoma cells were seeded at 2*10^5 cells/well in 6-well plates and cultured in a 37 °C/5% CO2 incubator for one day. After replacing the medium with PBS, 30 mJ/cm^2 of UVB (312 nm) was irradiated using an RMX 3W (Vilber Lourmat) instrument. Substances were added to the medium at appropriate concentrations and cultured for one day under the same conditions. Thereafter, total RNA was obtained using AccuPrep Universal RNA Extraction Kit (Bioneer, K-3140), and cDNA was synthesized using AccuPower® RocketScript Cycle (Bioneer, K-2202). The expression level of each gene was analyzed by performing qPCR using synthesized cDNA and taqman probe (assay ID: AKAP1-Mm00501539_m1, RAB11FIP2-Mm01261268_m1, PPARGC1B-Mm00504730_m1).
# [4] = tested on: protein carbonylation of keratinocytes; experiment: Protein carbonylation inhibition in UVA-irradiated human keratinocytes (HaCaT); format: cell-based; details: relative to UVA-only group, significant
# Method: Previous studies have shown that skin dullness and yellowness are promoted by protein carbonylation of keratinocytes. Therefore, through a protein carbonylation assay, it was examined whether or not customized substances for dark skin tone may also improve skin dullness and yellowness.
# Human keratinocytes (HaCaT) were seeded at 1×10^4 in black clear-bottom 96-well plates, and after 24 hours, treated with customized substances at appropriate concentrations. After another 24 hours, cells were irradiated with […] of UVA, washed with PBS, and then incubated with fluolescein-5-thiosemicabarzide in MES buffer for 1 hour at room temperature. After another washing with PBS, fluorescence was measured using a plate reader at an excitation of 492 nm and an emission of 562 nm. Furthermore, based on the UVA-only treatment group, the reduction in protein carbonylation by other effective substances was measured.
molecule,measurement,setting,value
CCOC1=C(O)C(=O)O[C@@H]1[C@@H](O)CO [3-O-ethyl ascorbic acid],change of PPARGC1B expression,PPARGC1B [1],increased
O=C1O[C@H]([C@@H](O)CO)C(O)=C1O[C@H]1O[C@H](CO)[C@@H](O)[C@H](O)[C@H]1O [ascorbyl glucoside],change of PPARGC1B expression,PPARGC1B [1],increased
C[C@H]1[C@H](C)CC[C@]2(C(=O)O[C@@H]3O[C@H](CO[C@@H]4O[C@H](CO)[C@@H](O[C@@H]5O[C@@H](C)[C@H](O)[C@@H](O)[C@H]5O)[C@H](O)[C@H]4O)[C@@H](O)[C@H](O)[C@H]3O)CC[C@]3(C)C(=CC[C@@H]4[C@@]5(C)C[C@@H](O)[C@H](O)[C@@](C)(CO)[C@@H]5CC[C@]43C)[C@H]12 [asiaticoside],change of TP63 expression,TP63,decreased
C=C[C@@](C)(/C=C/c1ccc(O)cc1)CCC=C(C)C [bakuchiol],change of BNC2 expression,BNC2,decreasing
same,inhibition at 5 ppm,"[2]; 5 ppm, FIG. 5, read-out: reduction of melanin production (Y, Z)",~2.07%
"CC(C)=CCC[C@](C)(O)[C@@H]1CC=C(C)CC1 [bisabolol, 6-methyl-2-(4-methylcyclohex-3-en-1-yl)hept-5-en-2-ol]",change of RAB11FIP2 expression,RAB11FIP2,increasing
NCCS [cysteamine HCl],change of AKAP1 expression,AKAP1,decreasing
N[C@@H](CS)C(=O)O [cysteine],change of AKAP1 expression,AKAP1,decreasing
"COc1cc(/C=C/C(=O)O)ccc1O [ferulic acid, 4-hydroxy-3-methoxycinnamic acid]",change of OCA2 expression,OCA2,decreasing
same,change of BNC2 expression,BNC2,decreasing
same,change of RAB32 expression,RAB32,decreasing
same,inhibition at 10 ppm,"[2]; 10 ppm, FIG. 5, read-out: reduction of melanin production (X)",~5.04%
O=c1c(-c2ccc(O)cc2)coc2cc(O)cc(O)c12 [genistein],change of OCA2 expression,OCA2,decreasing
same,change of BNC2 expression,BNC2,decreasing
same,change of RAB32 expression,RAB32,decreasing
"O=C1O[C@H](CO)[C@@H](O)[C@H](O)[C@H]1O [gluconolactone, glucono-delta-lactone]",change of PPARGC1B expression,PPARGC1B [3],increased
O=C(O)CO [glycolic acid],change of PPARGC1B expression,PPARGC1B [3],increased
CC(C)CCCCCCCCCCCCCCC(=O)O [isostearic acid],change of OCA2 expression,OCA2,decreasing
same,inhibition at 50 ppm,"[4]; Homo sapiens, light or radiation study, 50 ppm, FIG. 9, read-out: reduction in protein carbonylation",31%
"OC[C@H]1O[C@@H](Oc2cc(O)cc(/C=C/c3ccc(O)cc3)c2)[C@H](O)[C@@H](O)[C@@H]1O [polydatin, 3,4′,5-trihydroxystilbene-3-mono-D glucoside]",change of OCA2 expression,OCA2,decreasing
same,change of BNC2 expression,BNC2,decreasing
same,change of RAB32 expression,RAB32,decreasing
same,inhibition at 10 ppm,"[2]; 10 ppm polydatin, FIG. 6, read-out: reduction of melanin production",~23.8%
O=c1c(O)c(-c2ccc(O)c(O)c2)oc2cc(O)cc(O)c12 [quercetin],change of OCA2 expression,OCA2,decreasing
same,change of RAB32 expression,RAB32,decreasing
same,inhibition at 20 ppm,"[2]; 20 ppm quercetin, FIG. 6, read-out: reduction of melanin production",~33.9%
CC(=O)C(=O)[O-].[Na+] [sodium pyruvate],change of TP63 expression,TP63,decreased
"NC[C@H]1CC[C@H](C(=O)O)CC1 [tranexamic acid, trans-4-(aminomethyl)cyclohexanecarboxylic acid, reference compound]",change of OCA2 expression,OCA2,decreasing
gamma oryzanol,change of OCA2 expression,OCA2,decreasing
same,change of RAB32 expression,RAB32,decreasing
same,reduction in protein carbonylation,"[4]; 2.5 ppm, FIG. 9",39%
